These results are taken from ChEMBL document CHEMBL4385594, “4(3H)-Quinazolinone derivatives: Promising antibacterial drug leads” (Eur J Med Chem, 2019).

In brackets after ≈: the same amount, converted by molar mass.

The test system of one assay is MCF7. Nature of the assay: Cytotoxicity against human MCF7 cells assessed as reduction in cell viability at 0.1 to 100 uM by MTT assay. Format: functional, cell-based.
Assay [1] relates to Staphylococcus aureus. As to the kind of experiment: Antibacterial activity against Staphylococcus aureus assessed as reduction in bacterial cell growth at 0.03 to 64 ug/ml incubated for 16 to 18 hrs by CLSI broth dilution method. Format: functional. For orientation: In broth dilution the organism is exposed to a series of concentrations in liquid medium.
Another assay relates to Suillus luteus. Nature of the assay: Antifungal activity against Suillus luteus assessed as reduction in fungal cell growth. Format: functional.
The test system of assay [2] is Escherichia coli. Nature of the assay: Antibacterial activity against Escherichia coli assessed as diameter of zone inhibition at 100 ppm by disc diffusion method. Format: functional. As to conditions: read-out: DIZ. For orientation: Agar diffusion results depend on both activity and mobility in agar.
Assay [3] concerns Staphylococcus aureus. As to the kind of experiment: Antibacterial activity against Staphylococcus aureus assessed as diameter of zone inhibition at 100 ppm by disc diffusion method. The following applies: read-out: DIZ. Format: functional.
Assay [4] has as its system Staphylococcus aureus. As to the kind of experiment: Antibacterial activity against Staphylococcus aureus ATCC 25923 assessed as reduction in bacterial cell growth at 0.03 to 64 ug/ml incubated for 16 to 18 hrs by CLSI broth dilution method. Format: functional.
The test system of assay [5] is Escherichia coli. Nature of the assay: Antibacterial activity against Escherichia coli ATCC 25922 assessed as reduction in bacterial cell growth at 0.03 to 64 ug/ml incubated for 16 to 18 hrs by CLSI broth dilution method. Format: functional.
Another assay has as its system Pseudomonas aeruginosa. As to the kind of experiment: Antibacterial activity against Pseudomonas aeruginosa ATCC 27853 assessed as reduction in bacterial cell growth at 0.03 to 64 ug/ml incubated for 16 to 18 hrs by CLSI broth dilution method. Format: functional.
The test system of the next assay is Enterococcus faecalis. As to the kind of experiment: Antibacterial activity against Enterococcus faecalis ATCC 29212 assessed as reduction in bacterial cell growth at 0.03 to 64 ug/ml incubated for 16 to 18 hrs by CLSI broth dilution method. Format: functional.
Assay [6] relates to Staphylococcus aureus. Nature of the assay: Antibacterial activity against Staphylococcus aureus. Format: functional.
The test system of assay [7] is Staphylococcus aureus. As to the kind of experiment: Antibacterial activity against Staphylococcus aureus assessed as inhibition zone. Format: functional.

Usually IC50 stands for the concentration that gives 50% inhibition. For the compound `Cn1cc[n+](C(Cn2cnc3ccc(Cl)cc3c2=O)c2cc3cc(Br)ccc3o2)c1` (centres undefined), the half-inhibitory concentration (IC50) in the assay with MCF7 is 570 to 1000 nM.
As usually defined, the MIC is the lowest concentration that inhibits growth of the organism. In the case of `N#Cc1ccc(/C=C/c2nc3ccccc3c(=O)n2-c2cccc(OCc3cn(Cc4ccccc4)nn3)c2)cc1`, in the assay with Staphylococcus aureus [1], the MIC amounted to 0.5 µg/mL (≈ 0.932 µM).
With `N#Cc1ccc(/C=C/c2nc3ccccc3c(=O)n2-c2cccc(OCc3cn(Cc4ccc([N+](=O)[O-])cc4)nn3)c2)cc1`, the MIC with Staphylococcus aureus [1] is 2 µg/mL (≈ 3.44 µM).
As for `N#Cc1ccc(/C=C/c2nc3ccccc3c(=O)n2-c2cccc(OCc3cn(Cc4ccc(Br)cc4)nn3)c2)cc1`, the minimal inhibitory concentration (MIC) in the assay on Staphylococcus aureus [1] worked out at 16 µg/mL (≈ 26 µM).
On the same count and under the same terms, next, `N#Cc1ccc(/C=C/c2nc3ccccc3c(=O)n2-c2ccc(OCc3cn(Cc4ccc(Br)cc4)nn3)cc2)cc1`: > 64 µg/mL.
Regarding `N#Cc1ccc(/C=C/c2nc3ccccc3c(=O)n2-c2cccc(OCc3cn(-c4ccc(C(F)(F)F)cc4)nn3)c2)cc1`, the MIC with Staphylococcus aureus [1] came to 4 µg/mL (≈ 6.77 µM).
Still for that read-out and setting: next, `N#Cc1ccc(/C=C/c2nc3ccccc3c(=O)n2-c2cccc(OCc3cn(-c4cccc(C(=O)O)c4)nn3)c2)cc1`: 4 µg/mL (≈ 7.06 µM); `COc1ccc(Cn2cc(COc3cccc(-n4c(/C=C/c5ccc(C#N)cc5)nc5ccccc5c4=O)c3)nn2)cc1`: 0.5 µg/mL (≈ 0.882 µM).
With `N#Cc1ccc(/C=C/c2nc3ccccc3c(=O)n2-c2cccc(OCc3cn(-c4cccc(Cl)c4)nn3)c2)cc1`, the minimal inhibitory concentration (MIC) with Staphylococcus aureus [1] turned out to be 0.5 µg/mL (≈ 0.898 µM).
In the case of `N#Cc1ccc(/C=C/c2nc3ccccc3c(=O)n2-c2cccc(OCc3cn(Cc4cccc(Br)c4)nn3)c2)cc1`, the minimum inhibitory concentration (MIC) with Staphylococcus aureus [1] is 0.5 µg/mL (≈ 0.812 µM).
As to `Cc1cccc(-n2cc(COc3cccc(-n4c(/C=C/c5ccc(C#N)cc5)nc5ccccc5c4=O)c3)nn2)c1`, the MIC in the assay on Staphylococcus aureus [1] was determined as 0.5 µg/mL (≈ 0.932 µM).
Take `O=c1c2ccccc2nc(/C=C/c2ccc(Cl)cc2)n1-c1cccc(OCc2cn(-c3cccc(F)c3)nn2)c1`: in the assay on Staphylococcus aureus [1], the MIC turned out to be 4 µg/mL (≈ 7.27 µM).
In the case of `COc1ccc(-n2cc(COc3cccc(-n4c(/C=C/c5ccc(C#N)cc5)nc5ccccc5c4=O)c3)nn2)cc1`, the MIC in the assay on Staphylococcus aureus [1] was 4 µg/mL (≈ 7.24 µM).
For `N#Cc1ccc(/C=C/c2nc3ccccc3c(=O)n2-c2cccc(OCc3cn(-c4cccc(F)c4)nn3)c2)cc1`, the MIC in the assay on Staphylococcus aureus [1] was determined as 0.5 µg/mL (≈ 0.925 µM).
Turning to `N#Cc1ccc(/C=C/c2nc3ccccc3c(=O)n2-c2cccc(OCc3cn(-c4ccc(Cl)cc4)nn3)c2)cc1`, the minimum inhibitory concentration (MIC) in the assay with Staphylococcus aureus [1] turned out to be 0.5 µg/mL (≈ 0.898 µM).
As for `C#CCOc1cccc(-n2c(/C=C/c3ccc(C#N)cc3)nc3c(C)cccc3c2=O)c1`, in the assay on Staphylococcus aureus [1], the MIC came to 1 µg/mL (≈ 2.4 µM).
On to `CCCCNC(=O)Oc1ccc(-n2c(/C=C/c3ccc(Cl)cc3)nc3cc(Cl)ccc3c2=O)cc1`, for which the MIC in the assay on Suillus luteus turned out to be 125 µg/mL (≈ 246 µM).
As to `Cc1nc2ccc(Br)cc2c(=O)n1/N=C/c1cc(Br)cc(Br)c1O`, the results for the zone of inhibition at 100 ppm in the assay on Escherichia coli [2] and with Staphylococcus aureus [3] were 27 mm and 24 mm, respectively.
Regarding `Cn1cc[n+](C(Cn2cnc3ccc(Cl)cc3c2=O)c2cc3ccccc3o2)c1` (centres undefined), the IC50 in the assay on MCF7 lay within 570 to 1000 nM.
On to `CC(C)NC(=O)c1cccc(-n2c(/C=C/c3ccc(C#N)cc3)nc3ccccc3c2=O)c1`, for which the MIC with Staphylococcus aureus [1] was determined as 0.25 µg/mL (≈ 0.575 µM).
As for `N#Cc1ccc(/C=C/c2nc3ccccc3c(=O)n2-c2cccc(C#N)c2)cc1`, the MIC in the assay on Staphylococcus aureus [1] is 0.5 µg/mL (≈ 1.34 µM).
Turning to `O=c1c2c(Br)cc(Br)cc2nc(-c2ccccc2)n1-c1nc2ccc(Br)cc2s1`, the MIC in the assay with Staphylococcus aureus [4], in the assay on Escherichia coli [5], in the assay on Pseudomonas aeruginosa and in the assay on Enterococcus faecalis was 1 to 8.5 µg/mL (≈ 1.69 to 14.4 µM) throughout.
On to `Cc1nc2ccc(Br)cc2c(=O)n1/N=C/c1cc(I)cc(I)c1O`, for which the zone of inhibition at 100 ppm worked out at 16 mm in the assay with Escherichia coli [2] and 14 mm in the assay on Staphylococcus aureus [3].
`Cc1nc2ccc(Br)cc2c(=O)n1/N=C/c1cc(Cl)cc(Cl)c1O`: the zone of inhibition at 100 ppm with Escherichia coli [2] is 16 mm; with Staphylococcus aureus [3], 14 mm.
For `C=CCOc1cccc(-n2c(/C=C/c3ccc(C#N)cc3)nc3ccccc3c2=O)c1`, the MIC in the assay on Staphylococcus aureus [1] was 0.125 µg/mL (≈ 0.308 µM).
`COc1ccc2ncn(CC(c3cc4ccccc4o3)[n+]3ccn(C)c3)c(=O)c2c1` (centres undefined): the IC50 with MCF7 was in the range of 570 to 1000 nM.
As for `Cc1ccc2c(c1)c(=O)n(-c1ccccc1)c1nnc(-c3ccccc3)n21`, the MIC in the assay on Staphylococcus aureus [6] was determined as 32 µg/mL (≈ 90.8 µM). Besides, the “inhibition zone (IZ)” value in the assay with Staphylococcus aureus [7] came to 17 mm.
Turning to `O=c1c2c(Br)cc(Br)cc2nc(-c2ccccc2)n1-c1nc2cc(Cl)ccc2s1`, the MIC in the assay on Staphylococcus aureus [4], with Escherichia coli [5], in the assay on Pseudomonas aeruginosa and in the assay with Enterococcus faecalis was 1.2 to 9 µg/mL (≈ 2.19 to 16.4 µM) throughout.
As to `Cc1cccc2c(=O)n(-c3cccc(O)c3)c(/C=C/c3ccc(C#N)cc3)nc12`, the MIC in the assay with Staphylococcus aureus [1] was 0.5 µg/mL (≈ 1.32 µM).
